Assay results reported in patent US9637490B2, “Antifungal 5,6-dihydro-4-[(difluoroethyl)phenyl]-4H-pyrrolo[1,2-α][1,4]benzodiazepine and 4-(difluoroethyl)phenyl-6H-pyrrolo[1,2-α][1,4]benzodiazepine derivatives” (Janssen Pharmaceutica NV, priority 2010, dated 2017).

Key:
[1] = tested on: Scedosporium prolificans IHEM21157; assay: Antifungal activity in vitro (resazurin susceptibility screen), Inf. I; type: cell-based; settings: Lomentospora prolificans, 37 °C, 48 hours, resa time 17 hours
How it was run: (§1)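 RPMI-1640/2% glucose/MOPS pH 7.0; 10^3 cfu per well; top conc 64 μM, 2- or 4-fold dilutions from DMSO. Yeasts 24 h 37° C, dermatophytes ≥1 wk 27° C. Resazurin 0.005% added, fluorescence ex 550/em 590 nm vs untreated growth and medium-only controls.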

[2] = tested on: Rhizomucor miehei IHEM13391; assay: Antifungal activity in vitro (resazurin susceptibility screen), Inf. K; type: cell-based; settings: Rhizomucor miehei, IHEM13391, Rhizomucor miehei IHEM13391; 37 °C, 48 hours, resa time 17 hours
How it was run: as §1

in vivo = assay: in vivo; parameters: species or system mice; settings: mouse, po, 10 mg/kg
Description: Three animals (mean weight 20±7 g for mice and 275±20 for Guinea pigs) were used per dose route, time point and formulation.
For the oral (PO) solution formulation, compound was dissolved in a 20% hydroxypropyl-β-cyclodextrin (HP-β-CD) solution at a final concentration of 1 mg/ml. HCl was added to facilitate dissolution. After dissolution, the pH was brought up to 3.7 with NaOH. Mannitol was added to make the solution isotonic. For the PO suspension formulation, compound was suspended in 0.5% methocel at a final concentration of 1 mg/ml. The formulations were stored at room temperature, protected from light and analysed quantitatively with LC-MS/MS on the day of preparation. Stability of the formulations was checked on the day of dosing.
The animals were dosed orally by gastric intubation at 10 ml/kg to obtain a final dose 10 mg/kg. Three dosed animals were sacrificed for blood sampling at 15 and 30 min, 1, 2, 3, 4, 6, 8 and 24 h after PO dose administration as a solution and at 30 min, 1, 2, 4, 6, 8 and 24 h after PO dose administration as a suspension.
Blood was collected by multiple sampling from a tail vein into Multivette® 600 K3E tubes (Sarstedt). Samples were placed immediately at approximately 4° C. and plasma was obtained following centrifugation at 4° C. for 10 minutes at approximately 1900×g. All samples were shielded from daylight and stored at ≦−18° C. prior to analysis.
Plasma samples were analysed for dosed compound using a qualified research LC-MS/MS method. The key analytical performance (linearity, upper and lower limit of quantification, accuracy and precision) of the method was reported together with the plasma concentrations.
A limited pharmacokinetic analysis was performed using WinNonlin™ Professional (Version 5.2.1). A non-compartmental analysis using the lin/log trapezoidal rule with lin/log interpolation was used for all data.

[3] = tested on: Trichophyton rubrum B68183; assay: Antifungal activity in vitro (resazurin susceptibility screen), Inf. C; type: cell-based; settings: Trichophyton rubrum, B68183, Trichophyton rubrum B68183; 27 °C, 7 days, resa time 24 hours
How it was run: as §1

[4] = tested on: Cryptococcus neoformans B66663; assay: Antifungal activity in vitro (resazurin susceptibility screen), Inf. F; type: cell-based; settings: Cryptococcus neoformans, B66663, Cryptococcus neoformans B66663; 37 °C, 24 hours, resa time 4 hours
How it was run: as §1

Structure (SMILES): CC(F)(F)c1ccc(C2=NCc3c(Cl)cccc3-n3cccc32)cc1 [Compound 4, 7-chloro-4-[4-(1,1-difluoroethyl)phenyl]-6H-pyrrolo[1,2-a][1,4]benzodiazepine]
- IC50 [1]: 148 nM
- IC50 [2]: > 64.6 µM
- bioavailability (in vivo): 20%
- IC50 [3]: 234 nM
- IC50 [4]: 21.4 µM
